# What was measured:
# [1] = Stability of IA1 in different pH environments (HPLC main peak purity); type: physicochemical
# Experimental: The method for measuring the impurity content in the following examples is as follows, with reference to 0512 liquid chromatography method in the “Chinese Pharmacopoeia” 2015 Edition Volume IV. 20 μl of the system suitability solution, the reference solution, and the test solution are injected into the liquid chromatograph respectively, and the chromatograms are recorded. Calculation formula: each
# AT is the peak area of each impurity in the test solution; AS is the average peak area of the main peak in the reference solution; CT is the concentration (mg/ml) of the test solution; Cs is docetaxel conjugate concentration (mg/ml) in the reference solution; F is the correction factor for each impurity.
# HPLC conditions: An octadecyl bonded silica gel column (C18, 4.6×150 mm, 3.5 μm); gradient elution, phase A: acetonitrile: 0.1% phosphoric acid=45:55, phase B: acetonitrile; detection wavelength: 225 nm; flow rate: 1.0 ml/min; column temperature: 40° C.
# [2] = test system: 4T1 breast cancer; experiment: 4T1 breast cancer lung metastasis model of mice, experiment (1); type: in vivo, BALB/c mice; details: for breast tumor weight compared to the blank control group / number of metastatic nodules on the lung surface compared to the blank control group: tail vein once a week for 4 weeks, D28, IA1 10 mg/kg, DTX 5.7 mg/kg, MDC 10 mg/kg (equimolar); for breast tumor weight compared to the blank control group: FIG. 3A; for number of metastatic nodules on the lung surface compared to the blank control group: FIG. 3B
# Experimental: • (1) Cell culture and tumor inoculation: 4T1 cells were cultured in 1640 medium (Gibco) containing 10% fetal bovine serum (Hyclone Corp, USA), 1% glutamine and 1% penicillin-streptomycin. The 4T1 cells in logarithmic growth phase were collected and the cell concentration was adjusted to 1.5×10^6/mL. 0.1 mL 4T1 cells (1.5×10^5/per mouse) were inoculated in the fourth mammary fat pad of female BALB/c mice.
# Grouping and administration: BALB/c mice were inoculated with 4T1 breast cancer cells in the mammary fat pad. The day of inoculation was DO. Mice were administered in groups on the fourth day after inoculation. The experiment consisted of four groups: • (1) solvent control group (blank control group), • (2) IA1 10 mg/kg group, • (3) DTX (Docetaxel) 5.7 mg/kg group, • (4) MDC 10 mg/kg group. • (3) and (4) are positive control groups.
# (§1) Each group had 10 animals. Mice were administered by tail vein injection once a week for 4 weeks. Animal weight and tumor volume were monitored during the administration. Animals were weighed every 2-3 days, and the long diameter and short diameter of breast tumors were measured with a vernier caliper. The tumor size was calculated by the formula: (½)×long diameter×(short diameter)^2. The experiment was terminated on the 28th day (D28). The mice were sacrificed by cervical dislocation after eyeball blood collection. The breast tumor and lung were weighed. The number of metastatic nodules on the lung surface was counted. The results of tumor weight are shown in FIG. 3A, and the results of the number of metastatic nodules on the lung surface are shown in FIG. 3B.
# [3] = test system: 4T1 breast cancer; experiment: 4T1 breast cancer lung metastasis model of mice, experiment (2); type: in vivo, BALB/c mice; details: for increase in breast tumor weight compared with the blank control group / increase in the number of metastatic nodules on the lung surface compared with the blank control group: tail vein once a week for 4 weeks, D28, DTX 5.7 mg/kg, DTX 5.7+MDA-1 4.53 mg/kg, DTX 5.7+MDA-1-linker 4.43 mg/kg; for increase in breast tumor weight compared with the blank control group: FIG. 4A
# Experimental: 0.1 mL 4T1 cells (1.5×10^5/per mouse) were inoculated in the fourth mammary fat pad of female BALB/c mice.
# Grouping and administration: BALB/c mice were inoculated with 4T1 breast cancer cells in the mammary fat pad. The day of inoculation was DO, and mice were administered in groups on the fourth day after inoculation. The experiment consisted of five groups: • (1) solvent control group (blank control group), • (2) IA1 10 mg/kg group, • (3) DTX (Docetaxel) 5.7 mg/kg group, • (4) DTX (5.7 mg/kg)+MDA-1 (4.53 mg/kg) group, • (5) DTX (5.7 mg/kg)+MDA-1-linker (4.43 mg/kg) group. • (3), (4) and (5) are positive control groups.
# as §1, with “4A,” for “3A,”, “4B.” for “3B.”
# [4] = test system: 4T1 breast cancer; experiment: 4T1 breast cancer lung metastasis model of mice, experiment (3); type: in vivo, BALB/c mice; details: for increase in tumor weight compared with the blank control group / increase in tumor volume compared with the blank control group: tail vein once a week for 4 weeks, IA1 5 and 10 mg/kg, DTX 2.85 mg/kg, DTX 2.85+MDA-1 2.26 mg/kg, DTX 2.85+MDA-1-linker 2.21 mg/kg; for increase in tumor weight compared with the blank control group: D28, FIG. 5B; for increase in tumor volume compared with the blank control group: FIG. 5A
# Experimental: […]. Grouping and administration: BALB/c mice were inoculated with 4T1 breast cancer cells in the mammary fat pad. The day of inoculation was DO, and mice were administered in groups on the fourth day after inoculation. The experiment consisted of six groups: • (1) solvent control group (blank control group), • (2) IA1 5 mg/kg group, • (3) IA1 10 mg/kg group, • (4) DTX (Docetaxel) 2.85 mg/kg group, • (5) DTX (2.85 mg/kg)+MDA-1 (2.26 mg/kg) group, • (6) DTX (2.85 mg/kg)+MDA-1-linker (2.21 mg/kg) group. • (4), (5) and (6) are positive control groups.
# as §1, with “counted.” for “counted. The results of tumor weight are shown in FIG. 3A, and the results of the number of metastatic nodules on the lung surface are shown in FIG. 3B.”
SMILES,Decrease in purity of main peak within 14 h (%) ([1]; Acetonitrile/pH 3.0 buffer),Decrease in purity of main peak within 14 h (%) ([1]; Acetonitrile/pH 4.0 buffer),Decrease in purity of main peak within 14 h (%) ([1]; Acetonitrile/pH 5.0 buffer),Decrease in purity of main peak within 14 h (%) ([1]; Acetonitrile/pH 6.0 buffer),Decrease in purity of main peak within 14 h (%) ([1]; Acetonitrile/pH 7.0 buffer),Decrease in purity of main peak within 14 h (%) ([1]; Acetonitrile/pH 8.0 buffer),"inhibitory effects on tumor and cancer metastasis ([2]; same experiment, compared with IA1)",breast tumor weight compared to the blank control group [2],number of metastatic nodules on the lung surface compared to the blank control group [2],increase of inhibitory effect on lung surface metastatic nodules compared with docetaxel+MDA-1 ([3]; IA1 10 mg/kg versus DTX 5.7 mg/kg+MDA-1 4.53 mg/kg) [%],increase of inhibitory effect on lung surface metastatic nodules compared with docetaxel+MDA-1+linker ([3]; IA1 10 mg/kg versus DTX 5.7 mg/kg+MDA-1-linker 4.43 mg/kg) [%],"difference in the inhibitory effects on lung surface nodules versus positive control groups ([3]; IA1 10 mg/kg, FIG. 4B)",increase in breast tumor weight compared with the blank control group ([3]; IA1 10 mg/kg),"increase in the number of metastatic nodules on the lung surface compared with the blank control group ([3]; IA1 10 mg/kg, FIG. 4B)","difference in the inhibitory effects on tumor volume and weight versus positive control groups ([4]; IA1 versus docetaxel, docetaxel+MDA-1, docetaxel+MDA-1-linker, FIGS. 5A and 5B)",increase in tumor weight compared with the blank control group [4],increase in tumor volume compared with the blank control group [4]
CC(=O)O[C@@]12CO[C@@H]1C[C@H](O)[C@@]1(C)C(=O)[C@H](O)C3=C(C)[C@@H](OC(=O)[C@H](OC(=O)CCC(=O)NCCCC[C@H](NC(=O)CC[C@@H](NC(=O)[C@H](C)NC(=O)/C=C/c4ccc(F)cc4Cl)C(N)=O)C(=O)O)[C@@H](NC(=O)OC(C)(C)C)c4ccccc4)C[C@@](O)([C@@H](OC(=O)c4ccccc4)[C@H]21)C3(C)C [IA1],0.11,0.19,0.19,0.51,7.38,22.55,the most excellent,significantly inhibited,significantly inhibited,27.9,18.6,significant difference,significantly inhibited,significantly inhibited,significant difference,significantly inhibited,significantly inhibited
CC(=O)O[C@@]12CO[C@@H]1C[C@H](O)[C@@]1(C)C(=O)[C@H](O)C3=C(C)[C@@H](OC(=O)[C@H](O)[C@@H](NC(=O)OC(C)(C)C)c4ccccc4)C[C@@](O)([C@@H](OC(=O)c4ccccc4)[C@H]21)C3(C)C [docetaxel],,,,,,,,significantly inhibited,significantly inhibited,,,,significantly inhibited,significantly inhibited,,significantly inhibited,significantly inhibited

# From patent publication US11957758B2, “Pharmaceutical composition of docetaxel conjugate and preparation method” (SHENZHEN SALUBRIS PHARMACEUTICALS CO. LTD, priority 2017, dated 2024)
